For one data set, the target named is Potassium Channel hERG (Homo sapiens (Human), UniProt Q12809). Description: Radioligand binding assay No. 265900. The following applies: test substance 10 μM, read-out: Inhibitory rate (%), Potassium Channel hERG. For orientation: hERG is a cardiac potassium channel; its block is linked to QT prolongation.
The target of another data set is Dopamine D3 (Homo sapiens (Human), UniProt P35462). Description: Radioligand binding assay No. 219800. The following applies: test substance 10 μM, read-out: Inhibitory rate (%), Dopamine D3.
Data set [1] has as its target Androgen (Testosterone) AR (Rattus norvegicus (Rat), UniProt P15207). Description: Radioligand binding assay No. 285010. The following applies: test substance 10 μM, read-out: Inhibitory rate (%), Androgen (Testosterone) AR.
In data set [2] the test system is non-kinase drug target ligands listed in Table 5. The data set can be described thus: Drug target radioligand competitive binding assay, whole panel of Table 5. The following applies: test substance 10 μM, summary of Table 5.
Another data set deals with Dopamine D1 (Homo sapiens (Human), UniProt P21728). The data set can be described thus: Radioligand binding assay No. 219500. The following applies: test substance 10 μM, read-out: Inhibitory rate (%), Dopamine D1.
The next data set has as its target Estrogen ERα (Homo sapiens (Human), UniProt P03372). The data set can be described thus: Radioligand binding assay No. 226010. The following applies: test substance 10 μM, read-out: Inhibitory rate (%), Estrogen ERα.

Chain of Estrogen ERα (P03372 whole entry): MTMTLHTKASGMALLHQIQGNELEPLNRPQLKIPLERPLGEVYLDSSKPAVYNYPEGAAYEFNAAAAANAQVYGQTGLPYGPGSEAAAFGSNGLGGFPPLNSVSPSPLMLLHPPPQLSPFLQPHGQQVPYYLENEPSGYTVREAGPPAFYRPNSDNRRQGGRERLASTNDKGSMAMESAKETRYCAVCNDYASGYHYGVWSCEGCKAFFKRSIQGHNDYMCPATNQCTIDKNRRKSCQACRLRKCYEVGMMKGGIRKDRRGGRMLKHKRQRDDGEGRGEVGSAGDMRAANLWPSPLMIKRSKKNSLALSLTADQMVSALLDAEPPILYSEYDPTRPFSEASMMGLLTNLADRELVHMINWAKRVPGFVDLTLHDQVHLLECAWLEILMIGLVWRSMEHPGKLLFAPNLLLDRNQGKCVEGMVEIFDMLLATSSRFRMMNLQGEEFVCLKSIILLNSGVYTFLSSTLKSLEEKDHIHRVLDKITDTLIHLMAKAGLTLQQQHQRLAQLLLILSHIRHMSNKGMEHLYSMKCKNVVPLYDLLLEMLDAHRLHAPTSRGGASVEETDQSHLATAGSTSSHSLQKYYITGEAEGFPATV
Chain of Dopamine D3 (P35462 whole entry): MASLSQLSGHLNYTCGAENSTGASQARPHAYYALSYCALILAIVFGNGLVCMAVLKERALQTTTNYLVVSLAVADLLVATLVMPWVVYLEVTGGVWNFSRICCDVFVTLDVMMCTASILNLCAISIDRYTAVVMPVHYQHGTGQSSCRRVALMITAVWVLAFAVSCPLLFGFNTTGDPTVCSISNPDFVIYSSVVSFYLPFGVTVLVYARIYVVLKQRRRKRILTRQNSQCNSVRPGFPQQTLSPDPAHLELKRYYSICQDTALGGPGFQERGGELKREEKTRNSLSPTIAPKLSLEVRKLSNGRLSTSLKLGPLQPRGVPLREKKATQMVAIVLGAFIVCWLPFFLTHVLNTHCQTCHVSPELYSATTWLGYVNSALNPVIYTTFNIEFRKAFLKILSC
Chain of Potassium Channel hERG (Q12809 whole entry): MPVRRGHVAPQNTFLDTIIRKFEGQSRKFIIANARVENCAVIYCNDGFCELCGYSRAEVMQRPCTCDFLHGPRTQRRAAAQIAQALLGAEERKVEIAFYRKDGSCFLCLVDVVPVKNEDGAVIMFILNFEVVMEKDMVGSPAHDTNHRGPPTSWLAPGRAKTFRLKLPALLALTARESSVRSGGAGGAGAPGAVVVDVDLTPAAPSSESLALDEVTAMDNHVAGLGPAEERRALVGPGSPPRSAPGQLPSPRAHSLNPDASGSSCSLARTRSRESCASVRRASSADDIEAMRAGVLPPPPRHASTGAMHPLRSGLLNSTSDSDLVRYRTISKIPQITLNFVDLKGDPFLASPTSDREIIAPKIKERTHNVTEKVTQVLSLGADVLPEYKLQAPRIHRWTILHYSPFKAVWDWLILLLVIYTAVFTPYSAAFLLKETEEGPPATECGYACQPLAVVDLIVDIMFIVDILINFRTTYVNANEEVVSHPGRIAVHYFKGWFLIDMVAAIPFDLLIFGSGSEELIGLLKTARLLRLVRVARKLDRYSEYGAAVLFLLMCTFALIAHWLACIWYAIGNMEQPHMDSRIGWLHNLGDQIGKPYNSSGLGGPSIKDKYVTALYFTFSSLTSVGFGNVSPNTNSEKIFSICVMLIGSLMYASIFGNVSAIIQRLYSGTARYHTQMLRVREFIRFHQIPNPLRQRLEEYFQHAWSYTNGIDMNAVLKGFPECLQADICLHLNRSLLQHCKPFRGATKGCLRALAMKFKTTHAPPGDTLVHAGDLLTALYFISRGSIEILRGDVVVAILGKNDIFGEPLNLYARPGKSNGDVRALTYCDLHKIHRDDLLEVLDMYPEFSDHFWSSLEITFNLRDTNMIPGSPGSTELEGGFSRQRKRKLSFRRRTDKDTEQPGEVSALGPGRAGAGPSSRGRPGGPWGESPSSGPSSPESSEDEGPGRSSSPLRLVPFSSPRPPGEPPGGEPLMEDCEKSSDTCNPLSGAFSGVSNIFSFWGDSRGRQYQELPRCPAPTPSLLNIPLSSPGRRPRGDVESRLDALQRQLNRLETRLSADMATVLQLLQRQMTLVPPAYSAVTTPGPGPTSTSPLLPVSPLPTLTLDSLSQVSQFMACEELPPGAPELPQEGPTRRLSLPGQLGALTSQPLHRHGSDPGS
Chain of Dopamine D1 (P21728 whole entry): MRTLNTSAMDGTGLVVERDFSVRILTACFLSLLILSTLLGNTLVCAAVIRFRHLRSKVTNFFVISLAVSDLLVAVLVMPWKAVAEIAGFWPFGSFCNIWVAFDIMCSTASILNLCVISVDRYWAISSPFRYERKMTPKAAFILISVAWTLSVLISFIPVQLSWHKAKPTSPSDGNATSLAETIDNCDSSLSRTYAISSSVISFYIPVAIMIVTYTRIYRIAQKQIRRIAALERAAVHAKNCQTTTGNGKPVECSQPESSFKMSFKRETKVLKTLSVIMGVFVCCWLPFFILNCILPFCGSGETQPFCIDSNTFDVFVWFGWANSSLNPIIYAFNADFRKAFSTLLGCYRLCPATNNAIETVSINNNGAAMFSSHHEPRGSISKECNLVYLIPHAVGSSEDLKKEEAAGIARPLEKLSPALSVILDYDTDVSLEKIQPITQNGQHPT
Chain of Androgen (Testosterone) AR (P15207 whole entry S389L): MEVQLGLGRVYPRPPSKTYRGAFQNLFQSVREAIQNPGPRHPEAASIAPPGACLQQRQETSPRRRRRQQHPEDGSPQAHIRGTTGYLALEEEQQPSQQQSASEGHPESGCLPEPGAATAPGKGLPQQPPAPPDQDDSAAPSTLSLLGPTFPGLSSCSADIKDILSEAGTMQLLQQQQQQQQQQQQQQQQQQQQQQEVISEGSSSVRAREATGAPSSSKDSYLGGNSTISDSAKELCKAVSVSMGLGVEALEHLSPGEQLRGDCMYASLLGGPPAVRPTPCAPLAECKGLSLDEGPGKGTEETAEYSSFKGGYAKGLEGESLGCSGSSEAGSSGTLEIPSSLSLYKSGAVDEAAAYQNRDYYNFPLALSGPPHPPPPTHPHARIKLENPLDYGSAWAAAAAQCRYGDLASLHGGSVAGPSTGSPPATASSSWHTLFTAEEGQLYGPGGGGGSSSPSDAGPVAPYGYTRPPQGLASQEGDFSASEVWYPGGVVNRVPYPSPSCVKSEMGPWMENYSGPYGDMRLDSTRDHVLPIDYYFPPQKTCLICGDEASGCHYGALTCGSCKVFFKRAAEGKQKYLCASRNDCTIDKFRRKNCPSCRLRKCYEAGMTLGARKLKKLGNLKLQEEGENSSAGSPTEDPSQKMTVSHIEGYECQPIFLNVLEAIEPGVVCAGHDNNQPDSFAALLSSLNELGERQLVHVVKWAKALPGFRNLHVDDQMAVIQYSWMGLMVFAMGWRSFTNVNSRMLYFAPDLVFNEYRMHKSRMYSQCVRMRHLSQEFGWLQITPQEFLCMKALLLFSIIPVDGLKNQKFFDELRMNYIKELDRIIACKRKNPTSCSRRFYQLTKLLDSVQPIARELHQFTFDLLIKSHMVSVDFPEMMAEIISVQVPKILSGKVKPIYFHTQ

With `Nc1ccc(-c2ccc3ncc4c(=O)[nH]c(=O)n(-c5cccc(C(F)(F)F)c5)c4c3n2)cn1` [Compound 5, 9-(6-aminopyridin-3-yl)-1-(3-(trifluoromethyl)phenyl)pyrimido[5,4-c][1,5]naphthyridine-2,4(1H,3H)-dione], the inhibition at 10 µM at Potassium Channel hERG stood at 2%; on Dopamine D3, 15%; in data set [1], 30%; at Dopamine D1, 21%; at Estrogen ERα it was 17%. Moreover, the “inhibitory rates on the listed non-kinase drug target ligands” value in data set [2] was “less than 50%”.
